Measured values from patent publication US20210093714A1, “Combination and method for inhibiting the cancer cells” (NATIONAL TAIWAN UNIVERSITY, priority 2013, published 2021).
Residues, ends and D or L forms follow the SMILES beside them. *: point of attachment. Cbz = O=C(OCc1ccccc1)*

Key:
EGFR [1] = experiment: Western blot of CCN2-induced EGFR degradation; type: cell-based, human; details: CL1-5 with CCN2
Experimental: (§1) Proteins ([…]) were separated by SDS-PAGE and transferred to a polyvinylidene difluoride membrane (Immobilon-P membrane; Millipore) by electrotransfer. The blot was blocked in a solution of 5% skim milk and 0.1% Tween 20 in PBS. Thereafter, membrane-bound proteins were probed with the following primary antibodies: CCN2, DAPK, phosphorylated ERK, ERK-1, phosphorylated Akt, Akt, TrkA, phosphorylated-Src, Src, b-actin, a-tubulin (Santa Cruz Biotechnology), p-EGFR, and EGFR (Cell Signaling Technology, Danvers, MA, USA). The membrane was washed and then incubated with HRP-conjugated secondary antibodies for 30 min. Enhanced chemiluminescence reagents (Amersham Pharmacia Biotech, Piscataway, N.J., USA) were employed to depict the protein bands on membranes. The light was captured on Kodak X-Omat Blue autoradiography film (PerkinElmer Life Sciences, Boston, Mass., USA).
This embodiment focuses on whether CCN2 interacts with EGFR. At first, the effect of MG132 and CCN2 on the degradation of EGFR in the lung adenocarcinoma cell line, CL1-5, and the effect of cycloheximide and CCN2 on the degradation of EGFR in the lung adenocarcinoma cell line, CL1-5,were observed by western blot analysis, the results shown in FIGS. 4A and 4B. […] On the other hand, cycloheximide can gradually promote CCN2-induced EGFR degradation and attenuated the protein signal intensity(Fold) of EGFR (attenuated from 0.74 to 0.39)(as shown in FIG. 4B) with increasing time (0 hours, 12 hours, 24 hours, 48 hours). Thus, CCN2 can destabilize EGFR and enhance the degradation of EGFR.

DAPK = experiment: Western blot of DAPK expression; type: cell-based, human; details: CL1-5; PD98059 0, 10, 20 μM; FIG. 6E
Experimental: as §1
This embodiment focuses on the downstream signaling in CCN2-induced anoikis. At first, the effect of DAPK which can up-regulate CCN2 played on CCN2 induced anoikis and metastasis inhibition of lung adenocarcinoma cell lineswas observed by RT-PCR, dual luciferase reporter assay and western blot analysis, the results shown in FIGS. 6A to 6C. […] In addition, in the lung adenocarcinoma cell line, CL1-0/siCCN2, DAPK expression is suppressed, and DAPK expression also be suppressed with increasing dose (0 μg, 1μg, 3μg), (as shown on the top right in the FIG. 6C). Therefore, CCN2 induced DAPK expression in time- and dose-dependent manners.

ERK = experiment: Western blot of ERK phosphorylation; type: cell-based, human; details: CL1-5; PD98059 0, 10, 20 μM; FIG. 6E
Experimental: as §1
This embodiment focuses on the effect of CCN2 on the EGFR-induced signaling pathways. At first, the effect of exogenous CCN2(rCCN2) on the MAPK/AKT signaling pathways in the lung adenocarcinoma cell lines, CL1-5, A549 and CL1-0/siCCN2 was observed by western blot analysis, the results shown in FIG. 3A.

[2] = tested on: CCN2 transfected lung adenocarcinoma cell line, CL1-5; experiment: MTT Assay, chemotherapy drugs on CCN2 transfected CL1-5; type: cell-based, human; details: suspended CCN2 transfected CL1-5; increasing dose 0 to 10 μM; 24 hrs; FIG. 8A
Experimental: First, the effect of CCN2 on the suspended lung adenocarcinoma cell line, CL1-5, treated with chemotherapy was observed by MTT Assay, the results shown in FIG. 8A (Cells were treated for 24 hrs, *P<0.05, **P<0.01). […] In this embodiment, paclitaxel treatment with a concentration between 1 μM and 10 μM is perferred, and 10 μM is most preferable; doxorubicin treatment with a concentration between 0.5 μM and 10 μM is perferred, and 5 μM is most preferable.

EGFR [3] = experiment: Immunoprecipitation and in vitro binding assay of CCN2 and EGFR; parameters: species or system human; details: A549; rEGF 20 ng/mL for 24 h; rCCN2 100 ng/mL; FIG. 2C
Experimental: CCN2 transfectants were seeded overnight and incubated in serum-free media for 24 h. For immunoprecipitations, cells were lysed in an RIPA buffer (150 mM NaCl, 50 mM Tris-base, 5 mM EDTA, 1% NP-40, and 0.25% deoxycholate; pH 7.4). Protein concentrations were determined using the BCA protein assay kit (Pierce, Rockford, Ill., USA). Lysate was incubated for 2 h at 4[…] with gentle rotation with rabbit polyclonal antibodies for human EGFR, CCN2, or Src immobilized onto protein A—sepharose beads (Santa Cruz Biotechnology, Santa Cruz, Calif., USA). Beads were washed twice with an IP buffer (137 mM NaCl, 2.7 mM KCl, 1 mM MgCl2, 1 mM CaCl2, 1% NP-40, 10% glycerol, 1 mg/ml bovine serum albumin, and 20 mM Tris; pH 8.0), boiled in a sodium dodecyl sulfate-polyacrylamide gel electrophoresis (SDS-PAGE) sample buffer, and centrifuged (12000×g, 4° C. for 15 min).
The recombinant proteins rCCN2 (BioVendor Com. Heidelberg, Germany), rEGFR, and rEGF (R&D Techne Corporation) ([…]) were added in binding buffer (50 mM sodium phosphate, pH 7.5, 500 mM NaCl, and I% Nonidet P-40) and incubated with gentle rotation at 4° C. for 2 h. Thereafter, crosslinks were reversed by boiling in an SDS-PAGE sample buffer (containing 0.1M dithiothreitol (DTT)) before loading on SDS-PAGE gels for immunoblotting analysis. […]

EGFR [4] = molecular target: T1, EGFR (Homo sapiens, UniProt P00533); experiment: FACS and western blot, CCN2 domain responsible for EGFR binding; type: cell-based; details: suspended A549; rCT 100 ng/mL; FIG. 2G
T1 construct: endogenous in cells; host or cells: CL1-5 and A549 human lung adenocarcinoma cell lines
Experimental: After washing, cells were stained with an FITC-labelled goat anti-rabbit secondary antibody (Santa Cruz Biotechnology) for 30 min in the dark. Analysis was then conducted with an FACS Calibur cytometer (Collaborative Biomedical, BD Biosciences).

CC(C)C[C@@H](C=O)NC(=O)[C@H](CC(C)C)NC(=O)[C@H](CC(C)C)NC(=O)OCc1ccccc1 [MG132] (Cbz-Leu-Leu-Leu-aldehyde)
protein signal intensity(Fold) of EGFR (EGFR [1]; MG132, end of time course (24 hours), FIG. 4A): 1.41 Fold
protein signal intensity(Fold) of EGFR (EGFR [1]; MG132, start of time course (0 hours), FIG. 4A): 0.04 Fold

COc1cccc(-c2cc(=O)c3ccccc3o2)c1N [PD98059, reference compound]
DAPK expression (DAPK): gradually increase the DAPK expression
p-ERK (ERK): gradually inhibit p-ERK

COc1cccc2c1C(=O)c1c(O)c3c(c(O)c1C2=O)C[C@@](O)(C(=O)CO)C[C@@H]3O[C@H]1C[C@H](N)[C@H](O)[C@H](C)O1 [doxorubicin]
cell apoptosis [2]: increase cell apoptosis more significantly

CC(=O)O[C@H]1C(=O)[C@@]2(C)[C@H]([C@H](OC(=O)c3ccccc3)[C@]3(O)C[C@H](OC(=O)[C@H](O)[C@@H](NC(=O)c4ccccc4)c4ccccc4)C(C)=C1C3(C)C)[C@]1(OC(C)=O)CO[C@@H]1C[C@@H]2O [paclitaxel]
cell apoptosis [2]: increase cell apoptosis more significantly

C[C@@H]1C[C@@H]([C@H](O)CC2CC(=O)NC(=O)C2)C(=O)[C@@H](C)C1 [cycloheximide]
protein signal intensity(Fold) of EGFR (EGFR [1]; cycloheximide, end of time course (48 hours), FIG. 4B): 0.39 Fold
protein signal intensity(Fold) of EGFR (EGFR [1]; cycloheximide, start of time course (0 hours), FIG. 4B): 0.74 Fold

EGF: EGFR ligand, recombinant protein (R&D Techne Corporation) [reference compound]
effect on physical association between CCN2 and EGFR (EGFR [3]): do not block the physically association between CCN2 and EGFR

B1: rCT: carboxyl-terminal cystine knot (CT) domain of CCN2, CCN2 functional fragment (protein)
chain: KGKKCIRTPKISKPIKFELSGCTSMKTYRAKFCGVCTDGRCCTPHRTTTLPVEFKCPDGEVMKKNMMFIKTCACHYNCPGDNDIFESLYYRKMYGDMA
association of CT-domain of CCN2 with EGFR (EGFR [4]): has association relationship with EGFR
